# Key:
# mouse iNKT cells = experiment: Mouse iNKT cells expansion in vitro in spleen cell cultures (flow cytometry, TCR/NK1.1); format: cell-based
# Experimental: The compounds were assayed at a final concentration of 1 μg/mL in complete medium with 1% of methanol (MeOH), while the αGalCer (αGC) was used at 0.2 μg/mL. The cell cultures were labeled with anti-NK1-PE and anti-TCR-FITC specific antibodies. The percentages of NKT cells (double positive cells) were calculated within the population of electronically selected T cells.
# First, the ability to induce the specific proliferation of mouse iNKT was determined by culture experiments in vitro. For that, spleen cells derived from female B57Bl/6 mice between 10 and 20 weeks were isolated and the red blood cells were removed by hypotonic lysis. The spleen cells are distributed in 96 U-well plates, between 100,000 and 500,000 cells per well, and incubated in the presence of each of the compounds 1a, 1b, 2b, 3a, 3b and 4b at a final concentration of 1 μg/mL in RPMI-1640 growth medium, 10% fetal serum, […], 1% methanol. […] The culture was analyzed at day 5 or 6 by flow cytometry, using TCR and NK1.1 specific antibodies. In the presence of the control αGalCer:
# (§1) Mouse C57BL/6 spleen cells are obtained by isolation of the spleen of female mice from 8 to 12 weeks of age, according to protocols approved by the Animal and Human Research Ethics Committee of the Autonomous University of Barcelona. The spleens are disaggregated with the plunger of a syringe in […] in a laminar flow hood, removing the red blood cells with lysis buffer (Sigma-Aldrich). 5×10^5 cells are placed in the wells of 96 U-well plates, and incubated with 100 ng/mL of α-GalCer, OCH, or 1 μg/mL of the compounds 1a, 1b, 2b, 3a, 3b, and 4b in RPMI-1640 medium supplemented with 10% fetal calf serum (FCS) (Labclinics), 50 μM 2-mercaptoethanol, 2 mM L-glutamine and 1% methanol (non-toxic concentration for the cells), and grown at 37° C. in a 5% CO2 humidified atmosphere. 25 U/mL of recombinant human interleukin 2 are added at day 2 of culture.
# The spleen cells cultures grown in the indicated conditions are analyzed by flow cytometry in a FACS Calibur (Beckton Dickinson Bioscience) for quantifying the levels of proliferation of the iNKTs after incubation with the compounds 1a, 1b, 2b, 3a, 3b, and 4b. The stimulated spleen cultures are washed and preincubated with 50 μl of staining medium (PBS with 2% FCS) with anti-CD16 (clone 2.4G2) for 20 min in ice. Subsequently the cells are washed and resuspended in staining medium with mouse anti-TCR antibody conjugated to fluorescein isothiocyanate (FITC) (clone H57-597, BD-Pharmingen) and anti-NK1.1 conjugated to avidin (clone PK-136, BD-Pharmingen) for 30 min in ice. […] The samples are analyzed in the flow cytometer (FACSCalibur) and the data are processed using the program CellQuest (BD Bioscience).
# iNKT cells = experiment: Th1/Th2 deviation of the iNKT response (IFNγ versus IL-4 production); format: cell-based, mouse; conditions: for type of cytokine response (Th1/Th2 profile): IL-4 versus IFNγ induction in mouse spleen cell cultures; for IFNγ/IL-4 ratio: cytokines in mouse spleen cell culture supernatants (ELISA)
# Text: (§2) The CD1d glycolipidic ligands induce a deviation in the production of cytokines by iNKT cells to Th1 or Th2, depending on its ability to be presented by CD1d, and its structural characteristics recognized by the TCR. For quantifying more precisely the immunostimulating ability of the compound 4b and determining if it induces a deviation in the iNKT response, its ability to induce the production of IFNγ and IL-4 is titrated in the cell cultures using different concentrations, and comparing the same with the two prototypical ligands, αGalCer and OCH (dissolved in MeOH), that have been described as inducers of a Th1 and Th2 response, respectively.
# as §1
# For the determinations of IL-4 and IFNγ, culture supernatants are taken at day 4 or day 7, and stored at −70° C. or used immediately in ELISA assays (eBioscience) for quantifying the cytokines, following the manufacturer's instructions. Standard curves are generated with the recombinant cytokines included in the kit. The statistical significance of the results is analyzed using a t-Student test, considering significant differences with p<0.01. The compounds 1a, 1b, 2b, 3a, 3b, and 4b are resuspended in 100% methanol or 100% dimethyl sulfoxide at a concentration of 1 mg/mL, and a 1/10 use dilution in PBS is prepared, with a final concentration of 100 μg/mL. The compounds are heated at 56° C. for 10-30 min and sonicated, before being diluted in complete growth medium, with a final concentration of 1% vehicle in the cellular assay.
# [1] = tested on: IFNγ production by iNKT cells; experiment: IFNγ production in mouse spleen cell cultures, dose-response (ELISA); format: cell-based; conditions: dose-response (FIG. 3a)
# Text: (§3) Quantifying of the production of IFNγ (FIG. 3A) and IL-4 (FIG. 3B) after the stimulation in vitro of cultures of mouse spleen cells containing lipidic agonists of iNKT cells in a dose-response assay.
# as §2, §1
# (§4) For the determinations of IL-4 and IFNγ, culture supernatants are taken at day 4 or day 7, and stored at −70° C. or used immediately in ELISA assays (eBioscience) for quantifying the cytokines, following the manufacturer's instructions. […] The statistical significance of the results is analyzed using a t-Student test, considering significant differences with p<0.01. […]
# [2] = tested on: IL-4 production by iNKT cells; experiment: IL-4 production in mouse spleen cell cultures, dose-response (ELISA); format: cell-based; conditions: dose-response (FIG. 3b)
# Text: as §3
# as §2, with “respectively. […]” for “respectively.”
# as §4
# [3] = compound 1 μg/mL, 1% methanol, IL-2 at day 2, analysed day 5 or 6
compound,measurement,setting,value
"CCCCCCCCCCCCCCCCCCCCCCCCCC(=O)N[C@@H](CO[C@H]1O[C@H](CO)[C@H](O)[C@H](O)[C@H]1O)[C@H](O)[C@H](O)CCCCCCCCCCCCCC [αGalCer, α-galactosylceramide, reference compound]",expansion of the population of NKT cells over the baseline conditions,"mouse iNKT cells; αGalCer control (0.2 μg/mL per FIG. 1), 1% methanol, IL-2 at day 2, analysed day 5 or 6",more than 5 times
same,type of cytokine response (Th1/Th2 profile),iNKT cells,high Th1 profile
same,IFNγ/IL-4 ratio,iNKT cells,10
CCCCCCCCCCCCCC[C@@H](O)[C@@H](O)[C@H](CNC1[C@H](O)[C@H](O)C(O)[C@H](O)[C@H]1O)NC(=O)CCCCCCC (some centres unmarked) [Compound 3b],expansion of iNKTs,mouse iNKT cells; [3],approximately 2 times
CCCCCCCCCCCCCCCCCCCCCCCCCC(=O)N[C@@H](CNC1[C@H](O)[C@H](O)C(O)[C@H](O)[C@H]1O)[C@H](O)[C@H](O)CCCCCCCCCCCCCC (some centres unmarked) [Compound 3a],expansion of iNKTs,mouse iNKT cells; [3],approximately 2 times
"CCCCCCCCCCCCCCCCCCCCCCCCCC(=O)N[C@@H](CN[C@H]1C[C@H](O)[C@@H](O)[C@H](O)[C@H]1O)[C@H](O)[C@H](O)CCCCCCCCCCCCCC [Compound 4b, (2S,3S,4R)-2-hexacosanamide-1-(1′S,2′S,3′R,4′R,5′S)-2,3,4,5,-tetrahydroxycyclohexylaminooctadecane-3,4-diol]",concentration at which production of IFNγ is induced,[1],333 ng/mL
same,concentration at which the maximal IFNγ response plateau is reached,[1],1 µg/mL
same,magnitude of the maximal IFNγ response compared with α-GalCer,[1],lower magnitude
same,NKT cells as percentage of the T cells after incubation,"mouse iNKT cells; compound 1 μg/mL, increase from 1.2% baseline, day 5 or 6 (FIG. 1)",6.2%
same,type of cytokine response (Th1/Th2 profile),iNKT cells,preferably Th2-type response
same,IFNγ/IL-4 ratio,iNKT cells,2
same,response compared with the Th2 response prototype OCH,"iNKT cells; mouse spleen cell cultures, dose-response",lower response
same,concentration at which induction of IL-4 is maintained with high efficiency,[2],100 ng/mL
same,concentration at which induction of IL-4 is still significant,[2],33 ng/mL

# From patent US20120093875A1, “AMINOCYCLITOL COMPOUNDS, PROCESS FOR OBTAINING THEM AND USES” (priority 2009, published 2012)
